In US20260184691A1, “INHIBITORS AND DEGRADERS OF PIP4K PROTEIN” (Larkspur Biosciences, Inc., priority 2022, published 2026) one finds DC50 data, which are given here for 14 molecules.

In this assay the target is T1, endogenous PIP4K2C C-terminally tagged with HiBiT peptide in MOLT-4 cells (Homo sapiens, UniProt Q8TBX8).
T1 construct: to C-terminally tag endogenous PIP4K2C with HiBiT peptide; host or cells: MOLT-4 (CRISPR-Cas9 knock-in clone)
T1 sequence (Q8TBX8 1-421): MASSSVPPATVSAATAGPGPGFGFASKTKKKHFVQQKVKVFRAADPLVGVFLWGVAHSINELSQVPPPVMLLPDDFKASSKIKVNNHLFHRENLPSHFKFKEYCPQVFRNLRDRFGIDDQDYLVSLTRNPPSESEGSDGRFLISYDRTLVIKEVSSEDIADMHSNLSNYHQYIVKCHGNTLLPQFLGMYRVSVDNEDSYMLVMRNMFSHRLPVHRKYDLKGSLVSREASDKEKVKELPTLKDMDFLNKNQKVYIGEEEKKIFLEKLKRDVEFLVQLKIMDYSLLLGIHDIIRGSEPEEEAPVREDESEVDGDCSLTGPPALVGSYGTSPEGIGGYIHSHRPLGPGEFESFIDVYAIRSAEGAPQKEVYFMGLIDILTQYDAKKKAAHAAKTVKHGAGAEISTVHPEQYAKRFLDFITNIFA
Kind of assay: HiBiT PIP4K2C degradation assay in MOLT-4 cells. The settings on record: 24 hours, 10-point dose response, top concentration 10 micromolar, read-out: HiBIT-degradation MOLT4 PIP4k2C 24 hours DC50. Type of assay: cell-based. A digest of the protocol:
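Cells bearing C-terminal HiBiT knock-in were exposed to a 10-point, 3-fold dilution series (top 10 micromolar, duplicate) for 24 h at 37C, 5% CO2. Remaining tagged protein read by lytic HiBiT luminescence; DC50 from Hill-equation fit.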

Each structure is given as a SMILES string.

`O=C1CCC(N2Cc3c(OCCCCCCCC(=O)N4CCC5(CC4)CCN(c4cncc(Nc6ncc(Cl)c(-c7cccc(-c8ccccc8)c7)n6)c4)C5=O)cccc3C2=O)C(=O)N1` (centres unmarked) [Compound 70, 3-(4-((8-(2-(5-((4-([1,1′-biphenyl]-3-yl)-5-chloropyrimidin-2-yl)amino)pyridin-3-yl)-1-oxo-2,8-diazaspiro[4.5]decan-8-yl)-8-oxooctyl)oxy)-1-oxoisoindolin-2-yl)piperidine-2,6-dione]: the DC50 (usually the concentration giving 50% degradation) is under 500 nM.
With `O=C1CCC(Nc2ccc(C3CCN(CC(=O)N4CCC5(CC4)CCN(c4cncc(Nc6ncc(Cl)c(-c7cccc(N8CCCCC8)c7)n6)c4)C5=O)CC3)cc2)C(=O)N1` (centres unmarked) [Compound 185, 3-[4-[1-[2-[2-[5-[[5-chloro-4-[3-(1-piperidyl)phenyl]pyrimidin-2-yl]amino]-3-pyridyl]-1-oxo-2,8-diazaspiro[4.5]decan-8-yl]-2-oxo-ethyl]-4-piperidyl]anilino]piperidine-2,6-dione] the figure was under 500 nM; with `O=C1CCC(N2Cc3cc(OC4CCN(C(=O)CN5CCC6(CC5)CCN(c5cncc(Nc7ncc(Cl)c(-c8cccc(C9CC9)c8)n7)c5)C6=O)CC4)ccc3C2=O)C(=O)N1` (centres unmarked) [Compound 199, 3-(5-((1-(2-(2-(5-((5-chloro-4-(3-cyclopropylphenyl)pyrimidin-2-yl)amino)pyridin-3-yl)-1-oxo-2,8-diazaspiro[4.5]decan-8-yl)acetyl)piperidin-4-yl)oxy)-1-oxoisoindolin-2-yl)piperidine-2,6-dione], under 500 nM.
To `O=C1CCC(N2Cc3cc(NCCCCC(=O)N4CCC5(CC4)CCN(c4cncc(Nc6ncc(Cl)c(-c7cccc(-c8ccccn8)c7)n6)c4)C5=O)ccc3C2=O)C(=O)N1` (centres unmarked) [Compound 195, 3-(5-((5-(2-(5-((5-chloro-4-(3-(pyridin-2-yl)phenyl)pyrimidin-2-yl)amino)pyridin-3-yl)-1-oxo-2,8-diazaspiro[4.5]decan-8-yl)-5-oxopentyl)amino)-1-oxoisoindolin-2-yl)piperidine-2,6-dione] belongs under 500 nM; to `O=C1CCC(N2Cc3cc(OCCCCCCCCCN4CCC5(CC4)CCN(c4cncc(Nc6ncc(Cl)c(-c7cccc(-c8ccccc8)c7)n6)c4)C5=O)ccc3C2=O)C(=O)N1` (centres unmarked) [Compound 53, 3-(5-((9-(2-(5-((4-([1,1′-biphenyl]-3-yl)-5-chloropyrimidin-2-yl)amino)pyridin-3-yl)-1-oxo-2,8-diazaspiro[4.5]decan-8-yl)nonyl)oxy)-1-oxoisoindolin-2-yl)piperidine-2,6-dione], under 500 nM.
With `CC(=O)N1CCCC(n2cc(-c3nc(Nc4cncc(N5CCC6(CCN(C(=O)CN7CCC(c8ccc(NC9CCC(=O)NC9=O)cc8)CC7)CC6)C5=O)c4)ncc3Cl)cn2)C1` (centres unmarked) [Compound 197, 3-((4-(1-(2-(2-(5-((4-(1-(1-acetylpiperidin-3-yl)-1H-pyrazol-4-yl)-5-chloropyrimidin-2-yl)amino)pyridin-3-yl)-1-oxo-2,8-diazaspiro[4.5]decan-8-yl)-2-oxoethyl)piperidin-4-yl)phenyl)amino)piperidine-2,6-dione] the figure was under 500 nM; with `O=C(COc1ccc2c(c1)CN(C1CCC(=O)NC1=O)C2=O)NCCCCCCCCCC(=O)Nc1cncc(Nc2ncc(Cl)c(-c3cccc(-c4ccccc4)c3)n2)c1` (centres unmarked) [Compound 60, N-(5-((4-([1,1′-biphenyl]-3-yl)-5-chloropyrimidin-2-yl)amino)pyridin-3-yl)-10-(2-((2-(2,6-dioxopiperidin-3-yl)-1-oxoisoindolin-5-yl)oxy)acetamido)decanamide], under 500 nM; with `O=C1CCC(N2Cc3cc(C4CCN(CC(=O)N5CCC(C(=O)Nc6cncc(Nc7ncc(Cl)c(-c8cccc(C9CC9)c8)n7)c6)CC5)CC4)ccc3C2=O)C(=O)N1` (centres unmarked) [Compound 203, N-(5-((5-chloro-4-(3-cyclopropylphenyl)pyrimidin-2-yl)amino)pyridin-3-yl)-1-(2-(4-(2-(2,6-dioxopiperidin-3-yl)-1-oxoisoindolin-5-yl)piperidin-1-yl)acetyl)piperidine-4-carboxamide], under 500 nM.
For the molecule `O=C1CCC(N2Cc3cc(OCCCCCCCCCCN4CCC5(CC4)CCN(c4cncc(Nc6ncc(Cl)c(-c7cccc(-c8ccccc8)c7)n6)c4)C5=O)ccc3C2=O)C(=O)N1` (centres unmarked) [Compound 52, 3-(5-((10-(2-(5-((4-([1,1′-biphenyl]-3-yl)-5-chloropyrimidin-2-yl)amino)pyridin-3-yl)-1-oxo-2,8-diazaspiro[4.5]decan-8-yl)decyl)oxy)-1-oxoisoindolin-2-yl)piperidine-2,6-dione], the 50% degradation concentration (DC50) lay in the range of 500 to 1000 nM.
With `O=C(COc1cccc2c1C(=O)N(C1CCC(=O)NC1=O)C2=O)NCCCCCCCC(=O)Nc1cncc(Nc2ncc(Cl)c(-c3cccc(-c4ccccc4)c3)n2)c1` (centres unmarked) [Compound 86, N-(5-((4-([1,1′-biphenyl]-3-yl)-5-chloropyrimidin-2-yl)amino)pyridin-3-yl)-8-(2-((2-(2,6-dioxopiperidin-3-yl)-1,3-dioxoisoindolin-4-yl)oxy)acetamido)octanamide] the figure was under 500 nM; with `O=C1CCC(Nc2ccc(N3CCC(CC(=O)N4CCC5(CC4)CCN(c4cncc(Nc6ncc(Cl)c(N7CCC[C@H](C(F)(F)F)C7)n6)c4)C5=O)CC3)cc2)C(=O)N1` (stereo partly drawn) [Compound 178, 3-((4-(4-(2-(2-(5-((5-chloro-4-((S)-3-(trifluoromethyl)piperidin-1-yl)pyrimidin-2-yl)amino)pyridin-3-yl)-1-oxo-2,8-diazaspiro[4.5]decan-8-yl)-2-oxoethyl)piperidin-1-yl)phenyl)amino)piperidine-2,6-dione], under 500 nM.
In the case of `O=C(COc1ccc2c3c(cccc13)C(=O)N2C1CCC(=O)NC1=O)NCCCCCCCCCC(=O)Nc1cncc(Nc2ncc(Cl)c(-c3cccc(-c4ccccc4)c3)n2)c1` (centres unmarked) [Compound 167, N-(5-((4-([1,1′-biphenyl]-3-yl)-5-chloropyrimidin-2-yl)amino)pyridin-3-yl)-10-(2-((1-(2,6-dioxopiperidin-3-yl)-2-oxo-1,2-dihydrobenzo[cd]indol-6-yl)oxy)acetamido)decanamide], the DC50 is under 500 nM.
On to `O=C1CCC(N2Cc3cc(OC4CCN(CC(=O)N5CCC6(CC5)CCN(c5cncc(Nc7ncc(Cl)c(-c8cccc(C9CC9)c8)n7)c5)C6=O)CC4)ccc3C2=O)C(=O)N1` (centres unmarked) [Compound 205, 3-[5-[[1-[2-[2-[5-[[5-chloro-4-(3-cyclopropylphenyl)pyrimidin-2-yl]amino]-3-pyridyl]-1-oxo-2,8-diazaspiro[4.5]decan-8-yl]-2-oxo-ethyl]-4-piperidyl]oxy]-1-oxo-isoindolin-2-yl]piperidine-2,6-dione], for which the DC50 is under 500 nM.
With `O=C1CCC(N2Cc3cc(OCCCCCCC(=O)N4CCC5(CC4)CC(=O)N(c4cncc(Nc6ncc(Cl)c(-c7cccc(-c8ccccc8)c7)n6)c4)C5)ccc3C2=O)C(=O)N1` (centres unmarked) [Compound 166, 3-(5-((7-(2-(5-((4-([1,1′-biphenyl]-3-yl)-5-chloropyrimidin-2-yl)amino)pyridin-3-yl)-3-oxo-2,8-diazaspiro[4.5]decan-8-yl)-7-oxoheptyl)oxy)-1-oxoisoindolin-2-yl)piperidine-2,6-dione] the figure was under 500 nM.
